# From patent US9593305B2, “Differentiation of pluripotent stem cells” (Janssen Biotech, Inc., priority 2008, dated 2017)
# How the values were obtained:
# Format in all cases: cell-based
# [1] = test system: H1 human embryonic stem cells; test: Primary screening: definitive endoderm differentiation in the absence of activin A, cell number and SOX17 (Example 3); details: 2.5 μM compound, 20 ng/ml Wnt3a days 1-2, no activin A, four-day assay
# Experimental: (§1) Briefly, clusters of H1 human embryonic stem cells were grown on reduced growth factor […]™ (Invitrogen; Cat #1356231)-coated tissue culture plastic. Cells were passaged using collagenase (Invitrogen; Cat #17104-019) treatment and gentle scraping, washed to remove residual enzyme, and plated with even dispersal at a ratio of 1:1 (surface area) on reduced growth factor […]™-coated 96-well black plates (Packard ViewPlates; PerkinElmer; Cat #6005182) using volumes of 100 μl/well. Cells were allowed to attach as clusters and then recover log phase growth over a 1 to 3 day period, feeding daily with MEF conditioned medium supplemented with 8 ng/ml bFGF (R&D Systems; Cat #233-FB). Plates were maintained at 37° C., 5% CO2 in a humidified box throughout the duration of assay.
# The compounds tested were made available as 5 mM stocks in 96-well plate format, solubilized in 100% DMSO (Sigma; Cat #D2650) and stored at −80° C. The library compounds were further diluted to an intermediate concentration of 0.2 mM in 50 mM HEPES (Invitrogen; Cat #15630-080), 20% DMSO and stored at 4° C. Test conditions were performed in triplicate, feeding on alternate days over a four-day assay period. Primary screening assays were initiated by aspirating culture medium from each well followed by three washes in PBS (Invitrogen; Cat #14190) to remove residual growth factors and serum. On the first day of assay, test volumes of 200 μl per well were added back containing DMEM:F12 base medium (Invitrogen; Cat #11330-032) supplemented with 0.5% FCS (HyClone; Cat #SH30070.03) and 20 ng/ml Wnt3a (R&D Systems; Cat #1324-WN) plus 2.5 μM test compound. On the third day of assay, test volumes of 200 μl per well were added back containing DMEM:F12 base medium supplemented with 2% FCS plus 2.5 μM test compound, without Wnt3a. Positive control samples contained the same base medium supplemented with FCS, substituting 100 ng/ml recombinant human activin A (PeproTech; Cat #120-14) for the test compound throughout the four-day assay along with Wnt3a (20 ng/ml) added only on days 1 and 2. Negative control samples contained DMEM:F12 base medium supplemented with FCS, adding Wnt3a on days 1 and 2 but omitting activin A.
# (§2) At the conclusion of four-days of culture, assay plates were washed twice with PBS (Invitrogen; Cat #14190), fixed with 4% paraformaldehyde (Alexis Biochemical; Cat #ALX-350-011) at room temperature for 20 minutes, then washed three times with PBS and permeabilized with 0.5% Triton X-100 (Sigma; Cat #T8760-2) for 20 minutes at room temperature. Cells were washed again three times with PBS and blocked with 4% chicken serum (Invitrogen; Cat #16110082) in PBS for 30 minutes at room temperature. Primary antibody (goat anti-human SOX17; R&D Systems; Cat #AF1924) was diluted 1:100 in 4% chicken serum and added to each well for one hour at room temperature. Alexa Fluor 488 conjugated secondary antibody (chicken anti-goat IgG; Molecular Probes; Cat #AZ1467) was diluted 1:200 in PBS and added to each sample well after washing three times with PBS. To counter stain nuclei, 4 μg/ml Hoechst 33342 (Invitrogen; Cat #H3570) was added for ten minutes at room temperature. Plates were washed once with PBS and left in 100 μl/well PBS for imaging.
# (§3) Imaging was performed using an IN Cell Analyzer 1000 (GE Healthcare) utilizing the 51008bs dichroic for cells stained with Hoechst 33342 and Alexa Fluor 488. Exposure times were optimized from positive control wells and from untreated negative control wells stained with secondary antibody alone. Images from 15 fields per well were acquired to compensate for any cell loss during the bioassay and subsequent staining procedures. Measurements for total cell number and total SOX17 intensity were obtained from each well using IN Cell Developer Toolbox 1.7 (GE Healthcare) software. Segmentation for the nuclei was determined based on gray-scale levels (baseline range 100-300) and nuclear size. […]
# [2] = test system: H1 human embryonic stem cells; test: Secondary assay: compound combined with individual growth factors or small molecules, no activin A (Example 5, Table 4); details: growth factor 50 ng/ml combined with 2.5 μM compound and Wnt3a, no activin A
# Experimental: as §1, with “Clusters of H1” for “Briefly, clusters of H1”, “(Invitrogen; Cat #356231)-coated tissue culture” for “(Invitrogen; Cat #1356231)-coated tissue culture”, “(Invitrogen; Cat #Cat #17104-019) treatment” for “(Invitrogen; Cat #17104-019) treatment”
# Other agents tested were purchased as follows: BMP-7 (Sigma; Cat #B1434), LY294002 (Cayman; Cat 70920), PD98059, U0126, U0124 (EMD Biosciences; Cat #453710), muscimol (Tocris; Cat #0289), biuculline (Tocris; Cat #0130), sodium butyrate (Sigma; Cat #B5887). All growth factors were solubilized in PBS with 0.1% BSA (Sigma; Cat #A7888) and stored frozen at −80° C. Small molecules were solubilized in 100% DMSO (Sigma; Cat #D2650) and stored frozen at −80° C. The compounds were available as 5 mM stocks in 96-well plate format, solubilized in 100% DMSO and stored at −80° C. The compounds of the present invention were further diluted to an intermediate concentration of 0.2 mM in 50 mM HEPES (Invitrogen; Cat #15630-080), 20% DMSO and stored at 4° C. All growth factors and inhibitors were prepared in a deep well, 96-well polypropylene plate, diluted to 5× intermediate stocks in DMEM:F12 base medium at the beginning of assay and stored at 4° C.
# A secondary screening assay was conducted, testing in triplicate and feeding on alternate days over the four-day assay timeframe. Assays were initiated by aspirating culture medium from each well followed by three washes in PBS to remove residual growth factors and serum. Test volumes of 80 μl per well were added back containing DMEM:F12 base medium (Invitrogen; Cat #11330-032) supplemented with 0.625% FCS (HyClone; Cat #SH30070.03), 25 ng/ml Wnt3a (R&D Systems), and 3.125 μM compound plus 20 μl 5× stock of growth factor or small molecule to yield a final concentration of 0.5% FCS, 20 ng/ml Wnt3a, and 2.5 μM compound. […] Final assay concentrations of small molecules tested were as follows: muscimol (20 μM), PD98059 (1 μM), LY294002 (2.5 μM), 00124 (1 μM), U0126 (1 μM), sodium butyrate (0.5 mM). Positive control wells (100 μl/well) contained the same base medium supplemented with 0.5% FCS, 20 ng/ml Wnt3a and 100 ng/ml activin A. Negative control wells (100 μl/well) contained the same base medium with 0.5% FCS and 20 ng/ml Wnt3a, omitting activin A.
# On day 3, wells were aspirated and fed with 80 μl DMEM:F12 base medium supplemented with 2.5% FCS (HyClone) and 3.125 μM cyclic aniline-pyridinotriazine compound plus 20 μl 5× stock of growth factors or small molecules per well to yield a final concentration of 2% FCS and 2.5 μM compound (omitting Wnt3a) and as denoted on day one for all remaining growth factors or small molecules. Positive control wells (100 μl/well) contained the same base medium supplemented with 2% FCS and 100 ng/ml activin A, omitting Wnt3a. Negative control wells (100 μl/well) contained the same base medium with 2% FCS, omitting both activin A and Wnt3a.
# At the conclusion of four-days of culture, assay plates were washed twice with PBS, fixed with 4% paraformaldehyde (Alexis Biochemical; Cat #ALX-350-011) at room temperature for 20 minutes, then washed three times with PBS and permeabilized with 0.5% Triton X-100 (Sigma; Cat #T8760-2) for 20 minutes at room temperature. Cells were washed again three times with PBS and blocked with 4% chicken serum (Invitrogen; Cat #16110082) in PBS for 30 minutes at room temperature.
# [3] = test system: H1 human embryonic stem cells; test: Single-cell monolayer assay with EGF/FGF4, serum free, no activin A (Example 10, Table 10); details: No AA (with Wnt3a), FGF none
# Experimental: Briefly, clusters of H1 human embryonic stem cells were grown on reduced growth factor […]™ (Invitrogen; Cat #356231)-coated tissue culture plastic. Cultures were treated with Accutase (Sigma; Cat #A6964), using equivalent volumes of […] surface area for 5 minutes at 37° C., then gently resuspended, pelleted by centrifugation, and resuspended in MEF conditioned medium for counting. For assay seeding, cells were plated at 50,000 cells/cm^2 on reduced growth factor […]™-coated 96-well black plates (Packard ViewPlates; Cat #6005182) using volumes of 100 μl/well. Cells were allowed to attach and recover log phase growth over a 3 to 5 day period, feeding daily with MEF conditioned medium supplemented with 8 ng/ml bFGF (R&D Systems; Cat #233-FB). Plates were maintained at 37° C., 5% CO2 in a humidified box throughout the duration of assay.
# Stocks of EGF and FGF4 were prepared in a 96-well polypropylene plate (Corning, Inc.; Cat #3960). Compound 22 was available as a 5 mM stock solubilized in 100% DMSO (Sigma; Cat #D2650) and stored at −80° C. Assays were initiated by aspirating culture medium from each well followed by three washes in PBS to remove residual growth factors and serum. […]
# On the second day of assay, wells were again aspirated and fed with 80 μl per well were added back containing RPMI 1640 base medium supplemented with 2.5% fatty acid free BSA, 10 ng/ml bFGF, and 3.125 μM Compound 22 plus 20 μl 5× stock of growth factors to yield a final concentration of 2% fatty acid free BSA, 8 ng/ml bFGF and 2.5 μM Compound 22 in assay. Positive control wells contained the same base medium supplemented with 2% fatty acid free BSA, 8 ng/ml bFGF and 100 ng/ml recombinant human activin A. Negative control samples contained the same base medium supplemented with 2% fatty acid free BSA and 8 ng/ml bFGF but omitted treatment with activin A.
# as §2, with “with PBS,” for “with PBS (Invitrogen; Cat #14190),”, “Systems; cat” for “Systems; Cat”, “To counterstain” for “To counter stain”
# as §3, with “size. Averages and standard deviations were calculated for each replicate data set. Total SOX17 protein expression was reported as total intensity or integrated intensity, defined as total fluorescence of the cell multiplied by the area of the cell. Background was eliminated based on acceptance criteria of gray-scale ranges between 200 to 3500.” for “size.”
Compound,Cell Number: % of positive control [1],Sox17 Expression: % of positive control [1],Sox17 Expression: Average Total Intensity [1],Cell Number: Average Total Cell Number ([1]; positive control 100 ng/ml activin A + Wnt3a),increase in SOX17 expression (% of the activin A/Wnt3a control) [2],"Cell Number, % of positive control ([3]; EGF(50 ng/ml))","Cell Number, Average Total Cell Number ([3]; EGF(50 ng/ml))","Sox17 Expression, % of positive control ([3]; EGF(50 ng/ml))","Sox17 Expression, Average Total Intensity ([3]; EGF(50 ng/ml))","Cell Number, % of positive control ([3]; EGF(100 ng/ml))","Cell Number, Average Total Cell Number ([3]; EGF(100 ng/ml))","Sox17 Expression, % of positive control ([3]; EGF(100 ng/ml))","Sox17 Expression, Average Total Intensity ([3]; EGF(100 ng/ml))"
"CC(C)(C)OC(=O)NCCc1cccc(Nc2ncnc(-c3ccnc(C#CCO)c3)n2)c1 [Compound 3, 1,1-Dimethylethyl {2-[3-({4[2-(3-hydroxyprop-1-yn-1-yl)pyridin-4-yl]-1,3,5-triazin-2-yl}amino)phenyl]ethyl}carbamate]",133.82 % of positive control,−0.73 % of positive control,−2.34E+06,14211,–,–,–,–,–,–,–,–,–
EGF: growth factor purchased from R&D Systems,–,–,–,–,34%,43.85%,5558,18.44%,5.01E+07,53.79%,6818,23.62%,6.42E+07
